In US9885703B2, “Evaluation method and screening method for sphingosine-1-phosphate 1 (S1P1) receptor agonists” (MEIJI SEIKA PHARMA CO., LTD., priority 2013, dated 2018):
pEC50: −log10 of the molar value. Read-outs that look alike come from different tables or passages of the source.

Experiments:
S1P1 receptor = molecular target: T1, S1P1 receptor (Homo sapiens, UniProt P21453); assay: General S1P1 receptor agonist activity, CHO cells expressing S1P1 receptor (method of Experimental Example 1 of PTL 1); type: cell-based; conditions: method of PTL 1
T1 construct: expressed in transfected cells; host or cells: CHO cells
Text: As a general method for evaluating an S1P1 receptor agonist activity, there has been known a method which uses CHO cells expressing a S1P1 receptor, and the like to measure an agonist activity on the basis of binding to the receptor and a signal transduction activity through the binding (PTL 1).

[1] = molecular target: T2, S1P1 receptor coupled to Gαi1 (Homo sapiens, UniProt P21453); assay: Gα subtype-specific S1P1 receptor agonist activity (BRET, NPL 7), HEK 293T cells co-expressing S1P1 receptor, Gαi1, Gγ2 and Gβ1; type: cell-based; conditions: Gαi1 expressed
T2 construct: expressed in transfected cells; host or cells: HEK 293T cells
Text: (§1) In the present invention, an agonist activity specific to a Gαi subtype can be measured, for example, according to the method described in the present Example 1 (2) (the method described in NPL 7). To be more specific, by allowing cells to express an S1P1 receptor and a particular Gα subtype together with Gγ2 and Gβ1, an agonist activity can be measured on the basis of a difference in percentage between the Gα protein and the Gβγ protein caused by an S1P1 receptor agonist.
(§2) Next, the Gα protein subtype-specific S1P1 receptor agonist activities were evaluated according to the method described in NPL 7. Note that the expression conditions followed the section of “Supplementary Methods” in NPL 7, and the measurement conditions followed the section of “Bioluminescence resonance energy transfer measurement.”
(§3) First, HEK 293T cells were allowed to co-express an S1P1 receptor, a particular Gα subtype (Gαi1, Gαi2, or Gαi3), Gγ2, and Gβ1. Then, on the basis of a difference in percentage between the Gα protein and the Gβγ protein caused by the endogenous agonist S1P, the agonist activity was measured.

[2] = molecular target: T3, S1P1 receptor coupled to Gαi2 (Homo sapiens, UniProt P21453); assay: Gα subtype-specific S1P1 receptor agonist activity (BRET, NPL 7), HEK 293T cells co-expressing S1P1 receptor, Gαi2, Gγ2 and Gβ1; type: cell-based; conditions: Gαi2 expressed
T3 construct: expressed in transfected cells; host or cells: HEK 293T cells
Text: as §1, §2, §3

[3] = molecular target: T4, S1P1 receptor coupled to Gαi3 (Homo sapiens, UniProt P21453); assay: Gα subtype-specific S1P1 receptor agonist activity (BRET, NPL 7), HEK 293T cells co-expressing S1P1 receptor, Gαi3, Gγ2 and Gβ1; type: cell-based; conditions: Gαi3 expressed
T4 construct: expressed in transfected cells; host or cells: HEK 293T cells
Text: as §1, §2, §3

[4] = test system: number of lymphocytic cells in blood; assay: Efficacy evaluation: number of lymphocytic cells in blood after oral administration; type: in vivo; conditions: male SD rats; for ED50: Rattus norvegicus
Description: BAF312 or the compound B was orally administered to male SD rats at different doses. After 3, 6, and 24 hours, and the number of lymphocytic cells in blood was counted using a blood cell counter.

complete AV block = assay: Cardiotoxicity evaluation: AV block in guinea pigs under anesthesia; type: in vivo, male guinea pigs; conditions: anesthetized guinea pigs, 0.01 mg/kg by infusion for 10 minutes
Description: (§4) In this model, the guinea pigs used were highly responsive to an S1P1 receptor, and further the model was capable of reliable detection of S1P1 receptor-dependent cardiotoxicity under anesthesia. An electrocardiograph and a pacing device were attached to the male guinea pigs whose breathings were artificially controlled under anesthesia, and the drugs were administered.

[5] = Blood concentration in the guinea pig cardiotoxicity model; type: in vivo; conditions: male, whole blood, intravenous, guinea pigs, 0.01 mg/kg infusion for 10 minutes
Description: as §4
In addition, the blood concentrations of BAF312 and the compound B when the administrations were completed were respectively 17 nM and 91 nM. The blood concentrations after 1 hour were respectively <4 nM and 27 nM.

S1P receptor = conditions: reported generally, varies with evaluation method; read-out: 50% activation concentration (EC50 value) as an agonist activity against an S1P receptor; cited from earlier work

T4 sequence (P21453 whole entry): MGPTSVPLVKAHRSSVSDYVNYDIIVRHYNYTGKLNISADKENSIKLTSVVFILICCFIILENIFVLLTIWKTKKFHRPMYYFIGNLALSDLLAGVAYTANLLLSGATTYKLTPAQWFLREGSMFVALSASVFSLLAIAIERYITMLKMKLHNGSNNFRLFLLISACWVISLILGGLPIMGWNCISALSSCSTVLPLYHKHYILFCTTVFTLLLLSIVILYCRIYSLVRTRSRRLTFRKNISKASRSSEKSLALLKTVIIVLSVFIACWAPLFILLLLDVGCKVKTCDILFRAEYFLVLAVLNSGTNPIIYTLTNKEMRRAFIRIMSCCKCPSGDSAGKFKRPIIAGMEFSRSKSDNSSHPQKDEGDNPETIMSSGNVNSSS
T4 sequence (P08754 2-354 partner limits assumed): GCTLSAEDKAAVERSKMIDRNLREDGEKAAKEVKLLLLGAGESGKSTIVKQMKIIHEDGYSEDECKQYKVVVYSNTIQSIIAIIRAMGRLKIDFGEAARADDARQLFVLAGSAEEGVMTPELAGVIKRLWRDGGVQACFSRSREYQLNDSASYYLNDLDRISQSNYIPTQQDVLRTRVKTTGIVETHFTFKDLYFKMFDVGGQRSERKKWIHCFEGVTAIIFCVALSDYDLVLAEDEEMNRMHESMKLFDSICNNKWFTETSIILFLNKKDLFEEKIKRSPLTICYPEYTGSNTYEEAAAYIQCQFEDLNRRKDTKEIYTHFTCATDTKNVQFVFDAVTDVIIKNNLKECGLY
T4 sequence (P62873 2-340 partner limits assumed): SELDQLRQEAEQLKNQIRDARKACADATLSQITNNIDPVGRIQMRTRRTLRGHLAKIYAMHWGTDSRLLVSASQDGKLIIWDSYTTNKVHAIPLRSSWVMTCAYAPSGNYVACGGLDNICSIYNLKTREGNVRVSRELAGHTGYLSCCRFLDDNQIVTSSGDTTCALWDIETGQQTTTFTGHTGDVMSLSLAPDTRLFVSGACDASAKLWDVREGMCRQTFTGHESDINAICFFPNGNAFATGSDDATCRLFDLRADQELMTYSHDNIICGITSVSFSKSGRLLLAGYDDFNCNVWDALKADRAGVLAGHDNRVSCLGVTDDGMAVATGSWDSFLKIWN
T4 sequence (P59768 2-68 partner limits assumed): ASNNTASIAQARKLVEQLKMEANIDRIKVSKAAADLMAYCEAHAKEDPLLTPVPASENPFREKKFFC
T3 sequence (P21453 whole entry): as the sequence (P21453 whole entry) above
T3 sequence (P04899 2-355 partner limits assumed): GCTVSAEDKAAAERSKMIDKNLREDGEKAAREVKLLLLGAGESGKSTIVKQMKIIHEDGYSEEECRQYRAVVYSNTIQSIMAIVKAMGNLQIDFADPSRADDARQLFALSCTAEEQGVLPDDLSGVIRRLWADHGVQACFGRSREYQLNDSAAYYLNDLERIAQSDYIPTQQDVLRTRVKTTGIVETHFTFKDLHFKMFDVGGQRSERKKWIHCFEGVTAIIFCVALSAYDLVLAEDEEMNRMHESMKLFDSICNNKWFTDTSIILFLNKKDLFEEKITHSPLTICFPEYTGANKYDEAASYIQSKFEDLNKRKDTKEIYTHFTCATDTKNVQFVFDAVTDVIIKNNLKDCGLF
T3 sequence (P62873 2-340 partner limits assumed): as the sequence (P62873 2-340 partner limits assumed) above
T3 sequence (P59768 2-68 partner limits assumed): as the sequence (P59768 2-68 partner limits assumed) above
T2 sequence (P21453 whole entry): as the sequence (P21453 whole entry) above
T2 sequence (P63096 2-354 partner limits assumed): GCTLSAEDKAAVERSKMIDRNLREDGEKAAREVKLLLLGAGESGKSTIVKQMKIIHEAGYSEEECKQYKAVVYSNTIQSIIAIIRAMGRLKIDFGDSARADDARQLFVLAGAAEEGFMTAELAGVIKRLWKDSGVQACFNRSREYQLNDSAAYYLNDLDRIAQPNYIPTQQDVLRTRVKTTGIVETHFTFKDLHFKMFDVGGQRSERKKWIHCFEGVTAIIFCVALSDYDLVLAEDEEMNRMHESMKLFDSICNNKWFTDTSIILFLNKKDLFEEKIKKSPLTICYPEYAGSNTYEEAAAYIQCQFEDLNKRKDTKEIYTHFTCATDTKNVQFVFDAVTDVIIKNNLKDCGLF
T2 sequence (P62873 2-340 partner limits assumed): as the sequence (P62873 2-340 partner limits assumed) above
T2 sequence (P59768 2-68 partner limits assumed): as the sequence (P59768 2-68 partner limits assumed) above
T1 sequence (P21453 whole entry): as the sequence (P21453 whole entry) above

Structure (SMILES) | pEC50 (S1P1 receptor) | pEC50 [1] | pEC50 [2] | pEC50 [3] | ED50 ([4]; 6 hours, read-out: dose for suppressing the number of lymphocytic cells by 50% (ED50) after 6 hours) [mg/kg] | ED50 ([4]; 24 hours, read-out: dose for suppressing the number of lymphocytic cells by 50% (ED50) after 24 hours) [mg/kg] | effective blood concentration after 24 hours ([4]; 24 hours, calculated) [nM] | expression of complete AV block (cases) (complete AV block; four cases) | continuation of complete AV block (complete AV block; until 1 hour) | concentration at 1 h ([5]; after 1 hour) [nM] | concentration at 10 min ([5]; end of administration, read-out: blood concentration when the administration was completed) [nM] | pEC50 (S1P receptor)
CCc1cc(/C(C)=N/OCc2ccc(C3CCCCC3)c(C(F)(F)F)c2)ccc1CN1CC(C(=O)O)C1 [BAF312, Siponimod] | 8.52 | 6.91 | 7.09 | 7.57 | 0.1 | > 1 | > 208 | four out of four cases | continued in all the cases until 1 hour elapsed | < 4 | 17 | –
CCCCCCCCCCCCC/C=C/[C@@H](O)[C@@H](N)COP(=O)(O)O [Compound S1P, sphingosine-1-phosphate] | 8.19 | 6.58 | 7.84 | 8.08 | – | – | – | – | – | – | – | ~8.00
